Experimental data published in PMC10507085, “Pharmacological inhibition of TBK1/IKKε blunts immunopathology in a murine model of SARS-CoV-2 infection” (Nature Communications, 2023).

Columns and labels:
Assay in all cases: biochemical
Parameters in all cases: KINOMEscan competition binding, DNA-tagged kinase against immobilised ligand, qPCR read-out
Conditions in all cases: read-out: Percent Control
[1] = molecular target: BRAF (Homo sapiens, UniProt P15056)
[2] = molecular target: STK39 (Homo sapiens, UniProt Q9UEW8)
[3] = molecular target: MUSK (Homo sapiens, UniProt O15146)
[4] = molecular target: MARK2 (Homo sapiens, UniProt Q7KZI7)
[5] = molecular target: LATS2 (Homo sapiens, UniProt Q9NRM7)
[6] = molecular target: SRPK1 (Homo sapiens, UniProt Q96SB4)
[7] = molecular target: CDK18 (Homo sapiens, UniProt Q07002)
[8] = molecular target: NEK11 (Homo sapiens, UniProt Q8NG66)
Chain of NEK11 (Q8NG66 whole entry): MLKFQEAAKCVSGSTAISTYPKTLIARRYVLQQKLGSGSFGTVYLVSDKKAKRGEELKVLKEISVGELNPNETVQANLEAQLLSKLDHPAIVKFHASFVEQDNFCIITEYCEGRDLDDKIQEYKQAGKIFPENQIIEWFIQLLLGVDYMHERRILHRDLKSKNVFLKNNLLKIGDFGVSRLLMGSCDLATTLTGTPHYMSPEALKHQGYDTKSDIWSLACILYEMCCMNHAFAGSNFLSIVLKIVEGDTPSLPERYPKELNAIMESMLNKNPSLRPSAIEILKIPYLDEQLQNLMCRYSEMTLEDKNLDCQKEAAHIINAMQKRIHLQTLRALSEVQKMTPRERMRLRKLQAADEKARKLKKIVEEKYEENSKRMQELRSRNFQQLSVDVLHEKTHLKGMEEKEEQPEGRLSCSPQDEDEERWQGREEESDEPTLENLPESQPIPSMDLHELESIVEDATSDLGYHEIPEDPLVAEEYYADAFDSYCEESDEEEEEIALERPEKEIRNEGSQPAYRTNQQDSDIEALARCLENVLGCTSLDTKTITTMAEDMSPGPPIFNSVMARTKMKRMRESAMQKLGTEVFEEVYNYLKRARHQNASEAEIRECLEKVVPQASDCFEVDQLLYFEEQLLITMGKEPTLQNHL

[9] = molecular target: BRSK2 (Homo sapiens, UniProt Q8IWQ3)
[10] = molecular target: PKN2 (Homo sapiens, UniProt Q16513)
[11] = molecular target: NTRK3 (Homo sapiens, UniProt Q16288)
Chain of NTRK3 (Q16288 whole entry): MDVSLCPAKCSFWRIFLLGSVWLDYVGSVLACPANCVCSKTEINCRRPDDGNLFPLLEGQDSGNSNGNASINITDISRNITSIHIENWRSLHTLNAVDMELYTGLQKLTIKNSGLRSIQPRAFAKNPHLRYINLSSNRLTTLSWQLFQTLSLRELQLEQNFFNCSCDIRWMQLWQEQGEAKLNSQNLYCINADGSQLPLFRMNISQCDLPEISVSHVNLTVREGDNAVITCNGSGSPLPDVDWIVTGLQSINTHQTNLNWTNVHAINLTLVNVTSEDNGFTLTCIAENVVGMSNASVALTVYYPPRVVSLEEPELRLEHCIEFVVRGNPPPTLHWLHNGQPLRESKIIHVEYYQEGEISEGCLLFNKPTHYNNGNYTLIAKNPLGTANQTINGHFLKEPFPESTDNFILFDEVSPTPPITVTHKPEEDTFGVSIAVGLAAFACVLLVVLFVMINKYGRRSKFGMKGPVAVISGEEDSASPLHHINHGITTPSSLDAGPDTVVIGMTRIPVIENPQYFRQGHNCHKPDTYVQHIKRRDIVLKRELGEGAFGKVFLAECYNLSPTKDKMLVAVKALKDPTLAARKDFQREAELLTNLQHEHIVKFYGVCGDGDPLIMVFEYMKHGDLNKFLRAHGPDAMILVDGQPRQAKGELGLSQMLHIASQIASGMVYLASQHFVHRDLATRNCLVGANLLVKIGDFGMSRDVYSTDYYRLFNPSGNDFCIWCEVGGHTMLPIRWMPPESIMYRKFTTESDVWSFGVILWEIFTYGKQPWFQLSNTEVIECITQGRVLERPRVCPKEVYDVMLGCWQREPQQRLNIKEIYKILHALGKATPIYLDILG

[12] = molecular target: CDK5 (Homo sapiens, UniProt Q00535)
[13] = molecular target: STK32C (Homo sapiens, UniProt Q86UX6)
Chain of STK32C (Q86UX6 whole entry): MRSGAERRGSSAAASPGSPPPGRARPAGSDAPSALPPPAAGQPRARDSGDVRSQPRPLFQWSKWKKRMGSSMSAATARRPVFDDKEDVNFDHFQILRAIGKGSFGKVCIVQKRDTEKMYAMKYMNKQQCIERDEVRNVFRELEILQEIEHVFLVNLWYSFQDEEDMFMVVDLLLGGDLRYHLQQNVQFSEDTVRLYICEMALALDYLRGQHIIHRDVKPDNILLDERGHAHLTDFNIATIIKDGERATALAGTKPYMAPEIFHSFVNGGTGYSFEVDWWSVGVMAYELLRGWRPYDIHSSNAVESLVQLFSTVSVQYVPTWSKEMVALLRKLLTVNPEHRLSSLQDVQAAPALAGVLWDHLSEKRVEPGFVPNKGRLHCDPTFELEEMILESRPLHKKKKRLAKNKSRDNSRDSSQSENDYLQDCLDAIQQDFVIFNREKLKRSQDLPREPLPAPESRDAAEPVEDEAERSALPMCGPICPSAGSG

[14] = molecular target: MAK (Homo sapiens, UniProt P20794)
Chain of MAK (P20794 whole entry): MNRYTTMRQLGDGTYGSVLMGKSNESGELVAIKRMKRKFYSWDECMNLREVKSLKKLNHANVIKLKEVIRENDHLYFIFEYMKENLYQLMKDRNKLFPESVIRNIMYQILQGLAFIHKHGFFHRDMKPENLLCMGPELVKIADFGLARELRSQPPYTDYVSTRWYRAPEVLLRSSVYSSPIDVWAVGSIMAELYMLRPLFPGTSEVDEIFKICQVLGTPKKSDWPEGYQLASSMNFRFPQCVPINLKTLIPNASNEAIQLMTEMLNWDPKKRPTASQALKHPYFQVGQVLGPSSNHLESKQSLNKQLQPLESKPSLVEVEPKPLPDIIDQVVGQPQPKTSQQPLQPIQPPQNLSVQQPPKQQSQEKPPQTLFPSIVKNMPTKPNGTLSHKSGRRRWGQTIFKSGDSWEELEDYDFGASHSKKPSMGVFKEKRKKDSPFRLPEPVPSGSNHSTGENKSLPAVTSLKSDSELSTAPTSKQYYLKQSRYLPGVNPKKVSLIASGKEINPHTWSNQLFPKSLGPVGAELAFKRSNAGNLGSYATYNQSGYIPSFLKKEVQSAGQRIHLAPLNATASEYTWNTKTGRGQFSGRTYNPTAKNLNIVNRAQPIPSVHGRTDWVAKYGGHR

[15] = molecular target: SGK1 (Homo sapiens, UniProt O00141)
Chain of SGK1 (O00141 whole entry): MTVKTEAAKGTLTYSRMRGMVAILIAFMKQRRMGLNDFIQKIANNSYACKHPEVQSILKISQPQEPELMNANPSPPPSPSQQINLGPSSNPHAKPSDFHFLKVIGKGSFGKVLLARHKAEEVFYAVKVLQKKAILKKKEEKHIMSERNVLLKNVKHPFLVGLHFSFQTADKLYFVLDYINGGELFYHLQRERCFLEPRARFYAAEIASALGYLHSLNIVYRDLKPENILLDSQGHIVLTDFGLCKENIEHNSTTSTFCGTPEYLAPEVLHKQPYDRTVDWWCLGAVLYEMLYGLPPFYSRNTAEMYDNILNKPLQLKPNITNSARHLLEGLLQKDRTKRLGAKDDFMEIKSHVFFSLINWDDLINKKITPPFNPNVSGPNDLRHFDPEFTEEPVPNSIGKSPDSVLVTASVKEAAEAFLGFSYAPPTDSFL

[16] = molecular target: TNIK (Homo sapiens, UniProt Q9UKE5)
Chain of TNIK (Q9UKE5 whole entry): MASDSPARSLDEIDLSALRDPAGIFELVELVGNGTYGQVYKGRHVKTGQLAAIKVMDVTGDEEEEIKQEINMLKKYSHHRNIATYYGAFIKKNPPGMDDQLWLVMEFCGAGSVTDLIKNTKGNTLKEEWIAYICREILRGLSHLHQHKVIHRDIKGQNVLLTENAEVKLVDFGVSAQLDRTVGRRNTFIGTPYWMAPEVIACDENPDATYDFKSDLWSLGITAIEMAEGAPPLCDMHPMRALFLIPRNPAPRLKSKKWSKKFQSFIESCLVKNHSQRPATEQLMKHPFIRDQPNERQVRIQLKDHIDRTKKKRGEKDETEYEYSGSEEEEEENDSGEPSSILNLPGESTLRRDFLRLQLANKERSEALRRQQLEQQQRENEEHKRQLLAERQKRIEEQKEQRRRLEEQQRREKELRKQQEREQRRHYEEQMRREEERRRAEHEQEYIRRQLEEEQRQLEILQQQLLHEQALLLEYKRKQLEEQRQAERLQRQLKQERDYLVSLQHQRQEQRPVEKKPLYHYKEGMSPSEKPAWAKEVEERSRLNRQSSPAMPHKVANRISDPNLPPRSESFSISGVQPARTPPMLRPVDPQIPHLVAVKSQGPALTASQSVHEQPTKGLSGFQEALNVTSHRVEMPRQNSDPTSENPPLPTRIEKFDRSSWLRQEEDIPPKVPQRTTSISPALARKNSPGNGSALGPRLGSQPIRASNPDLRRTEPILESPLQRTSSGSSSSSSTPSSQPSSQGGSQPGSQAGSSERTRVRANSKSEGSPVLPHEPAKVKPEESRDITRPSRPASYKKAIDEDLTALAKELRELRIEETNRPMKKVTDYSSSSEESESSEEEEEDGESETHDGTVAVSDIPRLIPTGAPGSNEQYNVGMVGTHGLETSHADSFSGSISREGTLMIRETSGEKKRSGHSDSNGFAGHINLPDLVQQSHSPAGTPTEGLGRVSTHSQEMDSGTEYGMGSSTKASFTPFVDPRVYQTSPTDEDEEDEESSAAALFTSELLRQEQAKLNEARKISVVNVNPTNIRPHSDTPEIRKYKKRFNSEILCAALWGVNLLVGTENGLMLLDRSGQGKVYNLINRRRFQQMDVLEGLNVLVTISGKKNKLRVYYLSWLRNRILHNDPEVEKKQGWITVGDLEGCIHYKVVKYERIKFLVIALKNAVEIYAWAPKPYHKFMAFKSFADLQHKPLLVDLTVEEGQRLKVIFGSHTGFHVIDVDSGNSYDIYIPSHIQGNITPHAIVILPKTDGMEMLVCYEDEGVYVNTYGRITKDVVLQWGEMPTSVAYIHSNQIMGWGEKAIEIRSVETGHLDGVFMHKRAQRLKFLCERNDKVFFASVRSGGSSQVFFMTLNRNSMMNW

[17] = molecular target: PTK2 (Homo sapiens, UniProt Q05397)
[18] = molecular target: CDK17 (Homo sapiens, UniProt Q00537)
Chain of CDK17 (Q00537 whole entry): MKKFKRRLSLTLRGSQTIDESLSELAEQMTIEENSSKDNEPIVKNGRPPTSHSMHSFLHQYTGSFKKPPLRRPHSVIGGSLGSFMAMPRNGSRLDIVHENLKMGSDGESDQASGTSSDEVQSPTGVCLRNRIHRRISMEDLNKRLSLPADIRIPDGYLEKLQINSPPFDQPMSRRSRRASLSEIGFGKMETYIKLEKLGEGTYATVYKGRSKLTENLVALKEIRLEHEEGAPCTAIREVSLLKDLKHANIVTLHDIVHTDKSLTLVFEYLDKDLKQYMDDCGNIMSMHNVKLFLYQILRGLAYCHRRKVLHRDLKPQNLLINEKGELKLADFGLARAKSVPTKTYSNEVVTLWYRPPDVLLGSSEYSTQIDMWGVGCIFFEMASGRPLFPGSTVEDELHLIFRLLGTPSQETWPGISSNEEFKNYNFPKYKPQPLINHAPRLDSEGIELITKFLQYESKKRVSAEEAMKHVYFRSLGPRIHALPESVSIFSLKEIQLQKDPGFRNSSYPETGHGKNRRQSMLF

[19] = molecular target: CSF1R-autoinhibited (Homo sapiens, UniProt P07333)
[20] = molecular target: MARK3 (Homo sapiens, UniProt P27448)

Oc1ccc(C2=Cc3ccc(O)cc3OC2)cc1 [compound 1, idronoxil]
remaining binding at 10 µM [1]: 76%
remaining binding at 10 µM [2]: 71%
remaining binding at 10 µM [3]: 89%
remaining binding at 10 µM [4]: 84%
remaining binding at 10 µM [5]: 55%
remaining binding at 10 µM [6]: 100%
remaining binding at 10 µM [7]: 71%
remaining binding at 10 µM [8]: 61%
remaining binding at 10 µM [9]: 84%
remaining binding at 10 µM [10]: 70%
remaining binding at 10 µM [11]: 97%
remaining binding at 10 µM [12]: 100%
remaining binding at 10 µM [13]: 54%
remaining binding at 10 µM [14]: 100%
remaining binding at 10 µM [15]: 77%
remaining binding at 10 µM [16]: 56%
remaining binding at 10 µM [17]: 100%
remaining binding at 10 µM [18]: 97%
remaining binding at 10 µM [19]: 67%
remaining binding at 10 µM [20]: 100%
